This assay relates to U937 (human myeloid leukemia) cell line. The assay is described as follows: MTT cell viability, U937. In kind it is cell-based. The following applies: U-937, 48 h, positive control for HeLa and U937, cell line not specified, read-out: IC50 of positive control. The procedure: HeLa (cervical carcinoma) and U937 (pro-monocytic, human myeloid leukemia) cell lines were purchased from the American Type Cell Culture (ATCC) (Rockville, MD, USA). HeLa cells were maintained in DMEM, and U937 were cultured in RPMI 1640, both supplemented with 10% FBS, 100 mg/L streptomycin, and penicillin 100 IU/mL at 37 °C in a humidified atmosphere of 5% CO2. To ensure logarithmic growth, cells were subcultured every 2 days. Stock solutions of compound in DMSO were stored in the dark at 4 °C. Appropriate dilutions were prepared in culture medium immediately prior to use. […] PBMCs were isolated from buffy coats of healthy donors (kindly provided by the Blood Center of the Hospital of Battipaglia, Italy) by using standard Ficoll-Hypaque gradients. PBMCs were incubated with DMSO or compound 1 at 30 μM for 48 h. […] The number of viable cells was quantified by the MTT [3-(4,5-dimethylthiazol-2-yl)-2,5-diphenyl tetrazolium bromide] assay. Absorption at 550 nm for each well was assessed using Multiskan GO (Thermo Scientific). Half-maximal inhibitory concentration (IC50) values were calculated using GraphPad Prism 8. Experiments were performed in technical triplicates and repeated two times with similar results.

Each structure is given as a SMILES string.

A word on the IC50: it is the midpoint of a concentration-inhibition curve. On to `C[C@@H]1C[C@H]2O[C@@H]2/C=C\C=C\C(=O)Cc2c(Cl)c(O)cc(O)c2C(=O)O1` [radicicol, reference compound], for which the IC50 was found to be 250 nM.

The record behind these values is article PMC8041370, “Limonoids from Guarea guidonia and Cedrela odorata: Heat Shock Protein 90 (Hsp90) Modulator Properties of Chisomicine D” (Journal of Natural Products, 2021).
